System: coronavirus
Test: viral load reduction study, compound mixed with virus suspension
Type: cell-based
Settings: eight parts compound mixed with one part virus suspension, room temperature, 10 min contact; FIG. 4(A)
Protocol: For viral load reduction studies directly employing the coronavirus, eight parts of the compound were adapted to room temperature (RT) and mixed with one part of the virus suspension. Immediately after incubation for defined periods at room temperature, the mixture was diluted 1:10. After four days of incubation at 37° C. in a CO2 incubator, cells were microscopically examined for virus-specific cytopathogenic effects after 10 min of virus contact with the niobium compound. All tests were performed in triplicate.
Initially, exploratory studies were carried out with different proportions of the compounds and with the materials separately. […] In fact, the results of samples S10 (representing a solution containing pure CTAB dissolved in water) and S12 (sample containing the same content of CTAB reacted with niobium), clearly indicate the potentiated effect of the Nb-CTAB species.

CCCCCCCCCCCCCCCC[N+](C)(C)C.[Br-] [CTAB, hexadecyltrimethylammonium bromide]
viral load reduction: approximately 30%

Source: patent US20230240300A1, “NANO[…] MATERIAL BASED ON NIOBIUM OLIGOMERS, OBTENTION METHOD, AND USE” (UNIVERSIDADE FEDERAL DE MINAS GERAIS, priority 2020, published 2023)
